Assay results reported in PMC8920474 (Current Research in Chemical Biology, 2022).

What was measured:
TMPRSS2 = TMPRSS2 (Homo sapiens, UniProt O15393); assay: VeroE6/TMPRSS2 cell-based TMPRSS2 enzyme inhibitory assay; settings: VeroE6/TMPRSS2 cells; up to a concentration of 4.0 μM
furin = furin (Homo sapiens, UniProt P09958); assay: Vero/furin cell-based furin enzyme inhibitory assay; settings: for furin inhibitory activity: Vero/furin cells, up to a concentration of 40.0 μM
TMPRSS2 in LNCaP cells = test system: TMPRSS2 in LNCaP cells; parameters: species or system human; settings: read-out: IC50, LNCaP cell-based proteolytic enzyme inhibition

Sequence of furin (P09958 108-794): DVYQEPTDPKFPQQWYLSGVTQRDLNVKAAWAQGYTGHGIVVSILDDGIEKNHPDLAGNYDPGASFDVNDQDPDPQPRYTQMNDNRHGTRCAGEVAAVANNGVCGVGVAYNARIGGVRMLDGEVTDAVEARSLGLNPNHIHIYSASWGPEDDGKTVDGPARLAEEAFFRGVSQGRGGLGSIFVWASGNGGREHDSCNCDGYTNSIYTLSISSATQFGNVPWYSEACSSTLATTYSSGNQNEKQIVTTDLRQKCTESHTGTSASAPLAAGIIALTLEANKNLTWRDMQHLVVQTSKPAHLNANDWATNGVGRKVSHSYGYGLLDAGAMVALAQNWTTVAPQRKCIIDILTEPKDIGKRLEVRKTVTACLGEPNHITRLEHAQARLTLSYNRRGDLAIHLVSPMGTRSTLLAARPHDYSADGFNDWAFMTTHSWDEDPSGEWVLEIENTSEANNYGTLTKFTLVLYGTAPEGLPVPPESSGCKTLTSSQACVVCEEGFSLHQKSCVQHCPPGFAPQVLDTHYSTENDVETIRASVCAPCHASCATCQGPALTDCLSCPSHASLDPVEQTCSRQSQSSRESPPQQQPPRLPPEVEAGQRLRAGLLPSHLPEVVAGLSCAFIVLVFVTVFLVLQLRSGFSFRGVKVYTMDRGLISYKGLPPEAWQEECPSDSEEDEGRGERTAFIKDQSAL
Sequence of TMPRSS2 (O15393 whole entry): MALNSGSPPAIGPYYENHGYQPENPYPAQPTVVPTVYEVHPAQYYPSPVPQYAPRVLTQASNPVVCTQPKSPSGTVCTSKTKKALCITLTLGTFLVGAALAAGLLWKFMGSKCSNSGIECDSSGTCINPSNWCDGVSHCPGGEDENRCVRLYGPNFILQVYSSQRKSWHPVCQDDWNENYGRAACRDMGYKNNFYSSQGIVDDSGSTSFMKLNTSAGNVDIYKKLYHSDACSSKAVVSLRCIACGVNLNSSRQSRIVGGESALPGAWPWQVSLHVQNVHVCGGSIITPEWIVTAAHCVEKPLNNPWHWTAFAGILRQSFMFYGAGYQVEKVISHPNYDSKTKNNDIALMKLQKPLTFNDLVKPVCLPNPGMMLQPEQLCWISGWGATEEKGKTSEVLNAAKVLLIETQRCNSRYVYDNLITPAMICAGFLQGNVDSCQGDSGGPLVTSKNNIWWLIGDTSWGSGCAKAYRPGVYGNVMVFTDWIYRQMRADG

CN(Cc1cc(Br)cc(Br)c1N)C1CCCCC1 [Bromhexine, bromhexine]
TMPRSS2 inhibitory activity (TMPRSS2): inactive

CN(C)C(=O)COC(=O)Cc1ccc(OC(=O)c2ccc(NC(=N)N)cc2)cc1 [camostat]
furin inhibitory activity (furin): inactive
IC50 (TMPRSS2 in LNCaP cells): 0.026 ± 0.03 µM

N=C(N)c1ccc(/N=N/Nc2ccc(C(=N)N)cc2)cc1 [diminazene]
IC50 (furin): 13.2 µM

N=C(N)c1ccc2cc(OC(=O)c3ccc(N=C(N)N)cc3)ccc2c1 [nafamostat]
furin inhibitory activity (furin): inactive
